Several values for one entry are separate records, joined by “and”; a condition that tells them apart may be missing. Equal entries are not always repeated. Activity calls are given as the source filed them. Rule for the calls: active = viability on the fitted dose curve at most 10% of control; inactive = the rest. A value given as a limit tells only on which side of the number the result lay.

This assay concerns 786-0 complex spheroid viability. As to the kind of experiment: Anticancer human tumor 786-0 cell line growth inhibition.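 For all read-outs here: spheroids exposed to agents for seven days before readout.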 As to conditions: for viability, T/C: stronger effect = lower value. The method, boiled down:
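Complex spheroids of tumor cells with HUVEC and human MSCs, exposed to iadademstat combined with other agents. Each agent tested in half-log steps from near clinical Cmax (else 10 microM top), DMSO ≤0.25%.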

Setting [1] is: curve of first compound, second compound 0.1 µM.
Where [2] appears, read: curve of first compound, second compound 0.316 µM.
Where [3] appears, read: curve of first compound, second compound 1 µM.
[4] abbreviates: curve of first compound, second compound 3.16 µM.
[5] abbreviates: curve of first compound, second compound 10 µM.
[6] abbreviates: second compound 0.1 µM, first compound 0.000949 µM.
Setting [7] is: second compound 0.1 µM, first compound 0.003 µM.
Setting [8] is: second compound 0.1 µM, first compound 0.00949 µM.
Where [9] appears, read: second compound 0.1 µM, first compound 0.03 µM.
The mark [10] stands for this setting: second compound 0.1 µM, first compound 0.0949 µM.
Where [11] appears, read: second compound 0.1 µM, first compound 0.3 µM.
The mark [12] stands for this setting: second compound 0.316 µM, first compound 0.000949 µM.
[13] abbreviates: second compound 0.316 µM, first compound 0.003 µM.
[14] abbreviates: second compound 0.316 µM, first compound 0.00949 µM.
[15] abbreviates: second compound 0.316 µM, first compound 0.03 µM.
Setting [16] is: second compound 0.316 µM, first compound 0.0949 µM.
Where [17] appears, read: second compound 0.316 µM, first compound 0.3 µM.
Where [18] appears, read: second compound 1 µM, first compound 0.000949 µM.
Setting [19] is: second compound 1 µM, first compound 0.003 µM.
[20] abbreviates: second compound 1 µM, first compound 0.00949 µM.
Setting [21] is: second compound 1 µM, first compound 0.03 µM.
The mark [22] stands for this setting: second compound 1 µM, first compound 0.0949 µM.
The mark [23] stands for this setting: second compound 1 µM, first compound 0.3 µM.
Where [24] appears, read: second compound 3.16 µM, first compound 0.000949 µM.
Where [25] appears, read: second compound 3.16 µM, first compound 0.003 µM.
Where [26] appears, read: second compound 3.16 µM, first compound 0.00949 µM.
Where [27] appears, read: second compound 3.16 µM, first compound 0.03 µM.
Where [28] appears, read: second compound 3.16 µM, first compound 0.0949 µM.
Setting [29] is: second compound 3.16 µM, first compound 0.3 µM.
The mark [30] stands for this setting: second compound 10 µM, first compound 0.000949 µM.
The mark [31] stands for this setting: second compound 10 µM, first compound 0.003 µM.
Where [32] appears, read: second compound 10 µM, first compound 0.00949 µM.
[33] abbreviates: second compound 10 µM, first compound 0.03 µM.
Where [34] appears, read: second compound 10 µM, first compound 0.0949 µM.
[35] abbreviates: second compound 10 µM, first compound 0.3 µM.

A word on the IC50: it is the concentration at which inhibition is half-maximal. As usually defined, the viability, T/C is the ratio of treated to control. For `CCc1c2c(nc3ccc(O)cc13)-c1cc3c(c(=O)n1C2)COC(=O)[C@]3(O)CC` + NC1CCC(NC2CC2c2ccccc2)CC1, the IC50 is < 0.949 nM under setting [1]; < 0.949 nM under setting [2]; < 0.949 nM under setting [3]; < 0.949 nM under setting [4]; < 0.949 nM under setting [5]. Besides, the viability, T/C under setting [6] is 5.59%; the viability, T/C under setting [7] was 3.78%; the viability, T/C under setting [8] is 4.66%; the viability, T/C under setting [9] was 5.87%; the viability, T/C under setting [10] is 7.32%; the viability, T/C under setting [11] was 5.08%. Also, the viability, T/C under setting [12] was 4.71%; the viability, T/C under setting [13] is 5.02%; the viability, T/C under setting [14] was 5.44%; the viability, T/C under setting [15] is 5.35%; the viability, T/C under setting [16] was 6.11%; the viability, T/C under setting [17] was 6.29%. In addition, the viability, T/C under setting [18] was 4.87%; the viability, T/C under setting [19] is 4.67%; the viability, T/C under setting [20] was 4.31%; the viability, T/C under setting [21] was 6.32%; the viability, T/C under setting [22] was 7.36%; the viability, T/C under setting [23] was 5.93%. Besides, the viability, T/C under setting [24] was 4.72%; the viability, T/C under setting [25] is 4.8%; the viability, T/C under setting [26] is 5.76%; the viability, T/C under setting [27] was 6.79%; the viability, T/C under setting [28] was 7.9%; the viability, T/C under setting [29] was 6.54%. For the same compound, the viability, T/C runs as follows: under setting [30], 3.83%; under setting [31], 4.29%; under setting [32], 6.51%; under setting [33], 9.43%; under setting [34], 10.1%; under setting [35], 7.07%.

As for `O=C(C=Cc1cccc(S(=O)(=O)Nc2ccccc2)c1)NO`, the viability, T/C is 96.4% and 90.1% (compound 0.00949 µM); 94.9% and 96.3% (compound 0.03 µM); 98.5% and 102% (compound 0.0949 µM); 93.5% and 98.6% (compound 0.3 µM); 48.6% and 73.1% (compound 0.949 µM); 6.1% and 9.6% (compound 3 µM). Moreover, the IC50 (curve of compound) was 915 nM and 1440 nM.

Regarding `Nc1ccn(C2OC(CO)C(O)C2(F)F)c(=O)n1` (configuration not stated), the viability, T/C reads like this: (compound 0.000949 µM) 10.4% and 19.8%; (compound 0.003 µM) 4.3% and 7%; (compound 0.00949 µM) 4.25%; (compound 0.03 µM) 4.55% and 6.65%; (compound 0.0949 µM) 4.92% and 6.2%; (compound 0.3 µM) 6.14% and 6.43%. Besides, the result (compound 0.00949 µM) was active. The IC50 (curve of compound) is < 0.949 nM.

As for `Nc1ncn(C2CC(O)C(CO)S2)c(=O)n1` (configuration not stated) + NC1CC1c1ccc(-c2cccc(O)c2)cc1, the half-inhibitory concentration (IC50) was 216 nM under setting [1]; > 300 nM under setting [2]; 255 nM under setting [3]; 251 nM under setting [4]; > 300 nM under setting [5]. In addition, the viability, T/C is, setting by setting: under setting [6], 117%; under setting [7], 114%; under setting [8], 113%; under setting [9], 99%; under setting [10], 81.5%; under setting [11], 37.6%. Further, the viability, T/C reads like this: under setting [12], 116%; under setting [13], 121%; under setting [14], 112%; under setting [15], 106%; under setting [16], 86.8%; under setting [17], 51%. In addition, the viability, T/C by setting is: under setting [18], 121%; under setting [19], 110%; under setting [20], 110%; under setting [21], 100%; under setting [22], 83.2%; under setting [23], 44%. Moreover, the viability, T/C runs as follows: under setting [24], 111%; under setting [25], 109%; under setting [26], 102%; under setting [27], 102%; under setting [28], 79.3%; under setting [29], 44.2%. For the same compound, the viability, T/C was 93.3% under setting [30]; 100% under setting [31]; 95.1% under setting [32]; 95.2% under setting [33]; 81.3% under setting [34]; 53.9% under setting [35].

On to `CC1(C)CCC(CN2CCN(c3ccc(C(=O)NS(=O)(=O)c4ccc(NCC5CCOCC5)c([N+](=O)[O-])c4)c(Oc4cnc5[nH]ccc5c4)c3)CC2)=C(c2ccc(Cl)cc2)C1`, for which the viability, T/C is, setting by setting: (compound 0.0316 µM) 102% and 98%; (compound 0.1 µM) 106% and 105%; (compound 0.316 µM) 96.9% and 110%; (compound 1 µM) 97% and 99.1%; (compound 3.16 µM) 90.1% and 93.2%; (compound 10 µM) 66.7% and 79.4%. In addition, for the setting “curve of compound”, the IC50 is > 10000 nM.
